{"source": "patent US20130225591A1", "about": "“IMIDOTHIAZOLE KINASE INHIBITORS” (priority 2009, published 2013)", "data": [{"target": "T1, CDK5-p25 kinase (Homo sapiens, UniProt Q00535)", "T1 construct": "purchased Invitrogen PV4677", "T1 sequence (Q00535 whole entry)": "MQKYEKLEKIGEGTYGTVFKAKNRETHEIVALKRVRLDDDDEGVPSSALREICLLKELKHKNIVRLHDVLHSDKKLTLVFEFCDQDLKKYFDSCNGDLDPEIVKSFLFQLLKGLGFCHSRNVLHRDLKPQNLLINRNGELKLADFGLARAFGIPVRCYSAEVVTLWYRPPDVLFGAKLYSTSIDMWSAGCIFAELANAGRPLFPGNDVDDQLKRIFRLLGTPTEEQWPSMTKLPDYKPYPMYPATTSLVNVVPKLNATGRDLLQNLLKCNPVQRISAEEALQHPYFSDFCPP", "T1 sequence (Q15078 99-307 partner limits assumed)": "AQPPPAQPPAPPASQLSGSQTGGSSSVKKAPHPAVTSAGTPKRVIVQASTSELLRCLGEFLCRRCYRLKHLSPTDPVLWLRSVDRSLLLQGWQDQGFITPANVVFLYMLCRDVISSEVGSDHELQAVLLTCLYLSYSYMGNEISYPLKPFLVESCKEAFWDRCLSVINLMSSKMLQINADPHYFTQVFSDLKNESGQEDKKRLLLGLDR", "test": "CDK5-p25 kinase enzymatic assay", "assay_type": "biochemical", "settings": "50 nM-99 nM; 5 uM ATP, 0.3 nM CDK5-p25; read-out: IC50 potency, CDK5-p25 kinase enzymatic assay, 50 nM-99 nM", "protocol": "(§1) CDK5-p25 kinase (Invitrogen PV4677) enzymatic activity was measured using electrophoretic separation and fluorescent detection to monitor phosphorylation of a fluorescently labeled histone H1-derived peptide substrate, FL29 (5-FAM-GGGPATPKKAKKL-CONH2, Caliper #760429)\n(§2) First, 0.25 uL of serially diluted compound in DMSO at 100× concentration was transferred into each well of a 384-well polystyrene assay plate. To this was added 15 uL of a 1.67× enzyme solution (500 pM enzyme, 1 mM DTT (Sigma D9779), 1× reconstitution buffer with protease inhibitor (Caliper #700329 proprietary formulation)), followed by centrifugation for 1 min at 1000 rpm, and incubation for 5-15 min at room temperature to allow binding of compound to enzyme. To initiate the reaction, 10 uL of substrate/ATP mix (245 mM Hepes pH 7.5, 0.003% Brij 35, 0.004% Tween, 12.75 uM ATP, 3.75 uM FL29 peptide) were added to each well, followed by centrifugation at 1000 rpm for 1 min. The reaction was then incubated at room temperature for 30 min. Final assay conditions were: 0.3 nM CDK5-p25, 1.5 uM peptide, 5 uM ATP, 0.6 mM DTT, 1% DMSO, 98 mM HEPES pH 7.5.\n(§3) After incubation, reactions were quenched by the addition of 45 uL Caliper termination solution (Caliper proprietary formula), followed by centrifugation at 1000 rpm for 1 min. Extent of reaction (percentage conversion of substrate to phosphorylated product) was then measured using the Caliper EZ II reader. Dose-response curves were created by plotting the inhibition of enzyme activity (normalized relative to vehicle treated and no ATP control reactions) as a function of the log of compound concentration. The curve was analyzed using a four parameter logistical fit to calculate IC50 values.", "units": {"IC50": "µM"}, "values": [{"smiles": "O=C(Nc1ncn2c(C(F)(F)F)csc12)C(O)c1ccc2ccccc2c1", "note": "(single isomer, unassigned) [Example 44, (R or S)-2-hydroxy-2-(2-naphthyl)-N-[3-(trifluoromethyl)imidazo[5,1-b][1,3]thiazol-7-yl]acetamide]", "IC50": "0.05 to 0.099"}, {"smiles": "O=C(Nc1ncn2c(C(F)(F)F)csc12)C(Cl)c1ccc2ccccc2c1", "note": "(single isomer, unassigned) [Example 45, (R or S)-2-chloro-2-(2-naphthyl)-N-[3-(trifluoromethyl)imidazo[5,1-b][1,3]thiazol-7-yl]acetamide]", "IC50": "0.05 to 0.099"}, {"smiles": "O=C(Cc1ccc(-c2ccncc2)cc1)Nc1ncn2c(C(F)(F)F)csc12", "note": "[Example 12, 2-(4-pyridin-4-ylphenyl)-N-[3-(trifluoromethyl)imidazo[5,1-b][1,3]thiazol-7-yl]acetamide]", "IC50": "0.05 to 0.099"}, {"smiles": "O=C(Cc1ccc(N2CCCC2=O)cc1)Nc1ncn2c(C(F)(F)F)csc12", "note": "[Example 17, 2-[4-(2-oxopyrrolidin-1-yl)phenyl]-N-[3-(trifluoromethyl)imidazo[5,1-b][1,3]thiazol-7-yl]acetamide]", "IC50": "0.05 to 0.099"}, {"smiles": "Cn1cc(-c2ccc(CC(=O)Nc3ncn4c(C(F)(F)F)csc34)cc2)cn1", "note": "[Example 20, 2-[4-(1-methyl-1H-pyrazol-4-yl)phenyl]-N-[3-(trifluoromethyl)imidazo[5,1-b][1,3]thiazol-7-yl]acetamide]", "IC50": "0.05 to 0.099"}, {"smiles": "O=C(Cc1ccc(-n2ccnc2)cc1)Nc1ncn2c(C(F)(F)F)csc12", "note": "[Example 23, 2-[4-(1H-imidazol-1-yl)phenyl]-N-[3-(trifluoromethyl)imidazo[5,1-b][1,3]thiazol-7-yl]acetamide]", "IC50": "0.05 to 0.099"}, {"smiles": "O=C(Cc1ccc(-c2ccnnc2)cc1)Nc1ncn2c(C(F)(F)F)csc12", "note": "[Example 26, 2-(4-pyridazin-4-ylphenyl)-N-[3-(trifluoromethyl)imidazo[5,1-b][1,3]thiazol-7-yl]acetamide]", "IC50": "0.05 to 0.099"}, {"smiles": "NCc1ccc(CC(=O)Nc2ncn3c(C(F)(F)F)csc23)cc1", "note": "[Example 27, 2-[4-(aminomethyl)phenyl]-N-[3-(trifluoromethyl)imidazo[5,1-b][1,3]thiazol-7-yl]acetamide]", "IC50": "0.05 to 0.099"}, {"smiles": "O=C(Cc1ccc2c(c1)OCO2)Nc1ncn2c(C(F)(F)F)csc12", "note": "[Example 30, 2-(1,3-benzodioxol-5-yl)-N-[3-(trifluoromethyl)imidazo[5,1-b][1,3]thiazol-7-yl]acetamide]", "IC50": "0.05 to 0.099"}, {"smiles": "CN(C)c1ccc(CC(=O)Nc2ncn3c(C(F)(F)F)csc23)cc1", "note": "[Example 31, 2-[4-(dimethylamino)phenyl]-N-[3-(trifluoromethyl)imidazo[5,1-b][1,3]thiazol-7-yl]acetamide]", "IC50": "0.05 to 0.099"}]}, {"target": "T1, CDK5-p25 kinase", "test": "CDK5-p25 kinase enzymatic assay", "assay_type": "biochemical", "settings": "500 nM-3 μM; 5 uM ATP, 0.3 nM CDK5-p25; read-out: IC50 potency, CDK5-p25 kinase enzymatic assay, 500 nM-3 μM", "protocol": "as §1, §2, §3", "units": {"IC50": "µM"}, "values": [{"smiles": "O=C(Cc1cc2ccccc2cn1)Nc1ncn2c(C(F)(F)F)csc12", "note": "[Example 8, 2-isoquinolin-3-yl-N-[3-(trifluoromethyl)imidazo[5,1-b][1,3]thiazol-7-yl]acetamide]", "IC50": "0.5 to 3"}, {"smiles": "NC(C(=O)Nc1ncn2c(C(F)(F)F)csc12)c1ccc2ccccc2c1", "note": "(stereo not shown) [Example 15, 2-amino-2-(2-naphthyl)-N-[3-(trifluoromethyl)imidazo[5,1-b][1,3]thiazol-7-yl]acetamide]", "IC50": "0.5 to 3"}, {"smiles": "COc1ccc2cc(C(C)C(=O)Nc3ncn4c(C(F)(F)F)csc34)ccc2c1", "note": "(stereo not shown) [Example 18, 2-(6-methoxy-2-naphthyl)-N-[3-(trifluoromethyl)imidazo[5,1-b][1,3]thiazol-7-yl]propanamide]", "IC50": "0.5 to 3"}, {"smiles": "O=C(Cc1cn2cccnc2n1)Nc1ncn2c(C(F)(F)F)csc12", "note": "[Example 28, 2-imidazo[1,2-a]pyrimidin-2-yl-N-[3-(trifluoromethyl)imidazo[5,1-b][1,3]thiazol-7-yl]acetamide]", "IC50": "0.5 to 3"}]}, {"target": "T1, CDK5-p25 kinase", "test": "CDK5-p25 kinase enzymatic assay", "assay_type": "biochemical", "settings": "5 uM ATP, 0.3 nM CDK5-p25; read-out: IC50 potency, CDK5-p25 kinase enzymatic assay, 100 nM-499 nM", "protocol": "as §1, §2, §3", "units": {"IC50": "µM"}, "values": [{"smiles": "COc1cccc(-c2ccc(CC(=O)Nc3ncn4c(C(F)(F)F)csc34)cc2)c1", "note": "[Example 10, 2-(3′-methoxybiphenyl-4-yl)-N-[3-(trifluoromethyl)imidazo[5,1-b][1,3]thiazol-7-yl]acetamide]", "IC50": "0.1 to 0.499"}, {"smiles": "O=C(CC1CCOCC1)Nc1ncn2c(C(F)(F)F)csc12", "note": "[Example 21, 2-(tetrahydro-2H-pyran-4-yl)-N-[3-(trifluoromethyl)imidazo[5,1-b][1,3]thiazol-7-yl]acetamide]", "IC50": "0.1 to 0.499"}, {"smiles": "Cc1cc(CC(=O)Nc2ncn3c(C(F)(F)F)csc23)on1", "note": "[Example 22, 2-(3-methylisoxazol-5-yl)-N-[3-(trifluoromethyl)imidazo[5,1-b][1,3]thiazol-7-yl]acetamide]", "IC50": "0.1 to 0.499"}, {"smiles": "N[C@H]1CC[C@H](CC(=O)Nc2ncn3c(C(F)(F)F)csc23)CC1", "note": "[Example 25, 2-(trans-4-amino-cyclohexyl)-N-[3-(trifluoromethyl)imidazo[5,1-b][1,3]thiazol-7-yl]acetamide]", "IC50": "0.1 to 0.499"}, {"smiles": "O=C(Cc1cn2ccccc2n1)Nc1ncn2c(C(F)(F)F)csc12", "note": "[Example 29, 2-imidazo[1,2-a]pyridin-2-yl-N-[3-(trifluoromethyl)imidazo[5,1-b][1,3]thiazol-7-yl]acetamide]", "IC50": "0.1 to 0.499"}, {"smiles": "O=C(Cc1cncnc1)Nc1ncn2c(C(F)(F)F)csc12", "note": "[Example 32, 2-pyrimidin-5-yl-N-[3-(trifluoromethyl)imidazo[5,1-b][1,3]thiazol-7-yl]acetamide]", "IC50": "0.1 to 0.499"}]}, {"target": "T1, CDK5-p25 kinase", "test": "CDK5-p25 kinase enzymatic assay", "assay_type": "biochemical", "settings": "'<50 nM'; 5 uM ATP, 0.3 nM CDK5-p25; read-out: IC50 potency, CDK5-p25 kinase enzymatic assay, <50 nM", "protocol": "as §1, §2, §3", "units": {"IC50": "µM"}, "values": [{"smiles": "O=C(Cc1ccc(N2CCOC2=O)cc1)Nc1ncn2c(C(F)(F)F)csc12", "note": "[Example 1, 2-[4-(2-Oxo-1,3-oxazolidin-3-yl)phenyl]-N-[3-(trifluoromethyl)imidazo[5,1-b][1,3]thiazol-7-yl]acetamide]", "IC50": "< 0.05"}, {"smiles": "O=C(Cc1ccc2ccccc2c1)Nc1ncn2c(C(F)(F)F)csc12", "note": "[Example 2, 2-(2-naphthyl)-N-[3-(trifluoromethyl)imidazo[5,1-b][1,3]thiazol-7-yl]acetamide]", "IC50": "< 0.05"}, {"smiles": "O=C(Cc1ccc2ncccc2c1)Nc1ncn2c(C(F)(F)F)csc12", "note": "[Example 3, 2-quinolin-6-yl-N-[3-(trifluoromethyl)imidazo[5,1-b][1,3]thiazol-7-yl]acetamide]", "IC50": "< 0.05"}, {"smiles": "O=C(Cc1ccc2ccncc2c1)Nc1ncn2c(C(F)(F)F)csc12", "note": "[Example 4, 2-isoquinolin-7-yl-N-[3-(trifluoromethyl)imidazo[5,1-b][1,3]thiazol-7-yl]acetamide]", "IC50": "< 0.05"}, {"smiles": "O=C(Cc1ccc2cnccc2c1)Nc1ncn2c(C(F)(F)F)csc12", "note": "[Example 5, 2-isoquinolin-6-yl-N-[3-(trifluoromethyl)imidazo[5,1-b][1,3]thiazol-7-yl]acetamide]", "IC50": "< 0.05"}, {"smiles": "COc1ccc2cc(CC(=O)Nc3ncn4c(C(F)(F)F)csc34)ccc2c1", "note": "[Example 6, 2-(6-methoxy-2-naphthyl)-N-[3-(trifluoromethyl)imidazo[5,1-b][1,3]thiazol-7-yl]acetamide]", "IC50": "< 0.05"}, {"smiles": "O=C(Cc1ccc(Cl)nc1)Nc1ncn2c(C(F)(F)F)csc12", "note": "[Example 7, 2-(6-chloropyridin-3-yl)-N-[3-(trifluoromethyl)imidazo[5,1-b][1,3]thiazol-7-yl]acetamide]", "IC50": "< 0.05"}, {"smiles": "COc1ccc2ccc(CC(=O)Nc3ncn4c(C(F)(F)F)csc34)cc2c1", "note": "[Example 9, 2-(7-methoxy-2-naphthyl)-N-[3-(trifluoromethyl)imidazo[5,1-b][1,3]thiazol-7-yl]acetamide]", "IC50": "< 0.05"}, {"smiles": "O=C(Cc1ccc(-c2cccnc2)cc1)Nc1ncn2c(C(F)(F)F)csc12", "note": "[Example 11, 2-(4-pyridin-3-ylphenyl)-N-[3-(trifluoromethyl)imidazo[5,1-b][1,3]thiazol-7-yl]acetamide]", "IC50": "< 0.05"}, {"smiles": "O=C(Cc1ccc2cccnc2c1)Nc1ncn2c(C(F)(F)F)csc12", "note": "[Example 13, 2-quinolin-7-yl-N-(3-(trifluoromethyl)imidazo[5,1-b][1,3]thiazol-7-yl]acetamide]", "IC50": "< 0.05"}, {"smiles": "COc1cccc2cc(CC(=O)Nc3ncn4c(C(F)(F)F)csc34)ccc12", "note": "[Example 14, 2-(5-methoxy-2-naphthyl)-N-[3-(trifluoromethyl)imidazo[5,1-b][1,3]thiazol-7-yl]acetamide]", "IC50": "< 0.05"}, {"smiles": "O=C(Cc1ccc(-c2cn[nH]c2)cc1)Nc1ncn2c(C(F)(F)F)csc12", "note": "[Example 16, 2-[4-(1H-pyrazol-4-yl)phenyl]-N-(3-(trifluoromethyl)imidazo[5,1-b][1,3]thiazol-7-yl]acetamide]", "IC50": "< 0.05"}, {"smiles": "O=C(Cc1ccc(-c2cc[nH]n2)cc1)Nc1ncn2c(C(F)(F)F)csc12", "note": "[Example 19, 2-[4-(1H-pyrazol-3-yl)phenyl]-N-[3-(trifluoromethyl)imidazo[5,1-b][1,3]thiazol-7-yl]acetamide]", "IC50": "< 0.05"}, {"smiles": "O=C(Cc1cccc(-c2cn[nH]c2)c1)Nc1ncn2c(C(F)(F)F)csc12", "note": "[Example 24, 2-[3-(1H-pyrazol-4-yl)phenyl]-N-[3-(trifluoromethyl)imidazo[5,1-b][1,3]thiazol-7-yl]acetamide]", "IC50": "< 0.05"}]}]}
